We go through 17 compounds from PubChem BioAssay (NCI).

SMILES strings stand for the structures.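 Step 1: Grow cells in 96-well plates. Step 2: Expose to compound for 48 hours at 5 concentrations. Step 3: Interpolate endpoints linearly; if unreached, use highest concentration. TGI: concentration producing complete growth inhibition.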

The test system of the first assay is HOP-92 NSCLC. Kind of assay: DTP human tumour cell line panel, 48 h.
Compound `O=C(NS(=O)(=O)OCC(Cl)(Cl)Cl)SCCC(F)(F)C(F)(F)C(F)(F)C(F)(F)C(F)(F)C(F)(F)F` displayed a TGI of 23.4 µM.

Compound `CC(C)=C1C(=O)C[C@]2(C)C[C@H]3/C(=C(/C)CCC12)CC[C@@]3(C)O` (stereo partly specified) had a TGI greater than 50 µM.

For the compound `CC(=O)Nc1ccc(-c2nc3ccccc3s2)cc1`, the TGI was greater than 100 µM.

`O=C(NCCCN(CCCCN(CCCNC(=O)C(F)(F)F)CCCc1ccccc1)CCCc1ccccc1)C(F)(F)F`: the TGI amounted to 4.63 µM.

For `CCOP(=O)(O)C(C)(C)NC`, the TGI was greater than 100 µM.

For the compound `Cc1cccc(C(C)C)c1NC(=O)CC1Sc2ccccc2NC1=O` (stereo unspecified), the TGI was greater than 100 µM.

With `CC(C)C[C@H]1[C@@H](OCc2ccccc2)COS(=O)N1[C@H](C)c1ccccc1` (stereo partly specified), the TGI is greater than 100 µM.

Turning to `CC1(C)OC2C(O)CN3CCS[C@H]3C2O1` (stereo partly specified), the TGI is greater than 100 µM.

In another assay the test system is HT29 colon. Kind of assay: DTP human tumour cell line panel, 48 h.
Consider `O=C(NC(CO)Cc1ccc(Oc2cc(CC(CO)NC(=O)OCc3ccccc3)ccc2OC(=O)OCc2ccccc2)cc1)OCc1ccccc1` (stereo unspecified), for which the TGI was greater than 100 µM.

`CC(C)(C)c1cc(C(=O)/C=C/C=C/c2ccccc2)cc(C(C)(C)C)c1O`: the TGI is greater than 89.9 µM.

The compound `O=C(O)CCN(CCC(=O)O)c1ccc(/C=C2\SC(=S)NC2=O)cc1` showed a TGI greater than 100 µM.

Take `CC(=O)Nc1ccc2cc(C)c(=O)[nH]c2n1`: the TGI was greater than 100 µM.

With `CCc1nc2ccc(N=NN(C)C)cc2[nH]1`, the TGI is greater than 100 µM.

Turning to `Nc1nc2c(ncn2Cc2ccc(CO)cc2)c(=O)[nH]1`, the TGI is greater than 100 µM.

`CN(CCN(C)C(=S)NN)C(=S)NN` gave a TGI greater than 100 µM.

For the compound `O=C(NS(=O)(=O)OCC(Cl)(Cl)Cl)SCCC(F)(F)C(F)(F)C(F)(F)C(F)(F)C(F)(F)C(F)(F)F`, the TGI came to 35.6 µM.

Compound `CC(C)=C1C(=O)C[C@]2(C)C[C@H]3/C(=C(/C)CCC12)CC[C@@]3(C)O` (stereo partly specified) had a TGI greater than 50 µM.

As for `CC(=O)Nc1ccc(-c2nc3ccccc3s2)cc1`, the TGI is greater than 100 µM.

Compound `O=C(NCCCN(CCCCN(CCCNC(=O)C(F)(F)F)CCCc1ccccc1)CCCc1ccccc1)C(F)(F)F` displayed a TGI of 3.23 µM.

Turning to `CCOP(=O)(O)C(C)(C)NC`, the TGI was greater than 100 µM.

The compound `Cc1cccc(C(C)C)c1NC(=O)CC1Sc2ccccc2NC1=O` (stereo unspecified) yielded a TGI greater than 100 µM.

`CC(C)C[C@H]1[C@@H](OCc2ccccc2)COS(=O)N1[C@H](C)c1ccccc1` (stereo partly specified): the total growth inhibition concentration (TGI) was 49.3 µM.

With `CC1(C)OC2C(O)CN3CCS[C@H]3C2O1` (stereo partly specified), the TGI is greater than 100 µM.

In turn, `COC(=O)C1C=CN(N(C)C)C2=C1C(=O)c1c(O)cccc1C2=O` (stereo unspecified) showed a TGI of 3.61 µM.

Another assay deals with LOX IMVI melanoma. Kind of assay: DTP human tumour cell line panel, 48 h.
Take `COc1cc2c3c(c4cc(OC)c(OC)cc4c2cc1OC)C(=O)C1CCC(=O)N1C3` (stereo unspecified): the TGI was greater than 100 µM.

`O=C(NC(CO)Cc1ccc(Oc2cc(CC(CO)NC(=O)OCc3ccccc3)ccc2OC(=O)OCc2ccccc2)cc1)OCc1ccccc1` (stereo unspecified) yielded a TGI of 32.9 µM.

On to `CC(C)(C)c1cc(C(=O)/C=C/C=C/c2ccccc2)cc(C(C)(C)C)c1O`, for which the TGI amounted to 50.9 µM.

Consider `O=C(O)CCN(CCC(=O)O)c1ccc(/C=C2\SC(=S)NC2=O)cc1`, for which the total growth inhibition concentration (TGI) was greater than 100 µM.

The compound `Nc1nc2c(ncn2Cc2ccc(CO)cc2)c(=O)[nH]1` yielded a TGI greater than 100 µM.

Regarding `CN(CCN(C)C(=S)NN)C(=S)NN`, the TGI is greater than 100 µM.

`O=C(NS(=O)(=O)OCC(Cl)(Cl)Cl)SCCC(F)(F)C(F)(F)C(F)(F)C(F)(F)C(F)(F)C(F)(F)F` came in with a TGI of 45.6 µM.

For `CC(C)=C1C(=O)C[C@]2(C)C[C@H]3/C(=C(/C)CCC12)CC[C@@]3(C)O` (stereo partly specified), the TGI is greater than 50 µM.

In turn, `CC(=O)Nc1ccc(-c2nc3ccccc3s2)cc1` came in with a TGI greater than 100 µM.

As for `O=C(NCCCN(CCCCN(CCCNC(=O)C(F)(F)F)CCCc1ccccc1)CCCc1ccccc1)C(F)(F)F`, the TGI amounted to 3.89 µM.

With `CCOP(=O)(O)C(C)(C)NC`, the TGI was greater than 100 µM.

`Cc1cccc(C(C)C)c1NC(=O)CC1Sc2ccccc2NC1=O` (stereo unspecified) registered a TGI greater than 100 µM.

As to `CC(C)C[C@H]1[C@@H](OCc2ccccc2)COS(=O)N1[C@H](C)c1ccccc1` (stereo partly specified), the TGI worked out at 28.2 µM.

`CC1(C)OC2C(O)CN3CCS[C@H]3C2O1` (stereo partly specified) registered a TGI greater than 100 µM.

The test system of the next assay is MALME-3M melanoma. Kind of assay: DTP human tumour cell line panel, 48 h.
`COc1cc2c3c(c4cc(OC)c(OC)cc4c2cc1OC)C(=O)C1CCC(=O)N1C3` (stereo unspecified) showed a TGI of 83 µM.

Regarding `O=C(NC(CO)Cc1ccc(Oc2cc(CC(CO)NC(=O)OCc3ccccc3)ccc2OC(=O)OCc2ccccc2)cc1)OCc1ccccc1` (stereo unspecified), the TGI came out at 31.5 µM.

Take `CC(C)(C)c1cc(C(=O)/C=C/C=C/c2ccccc2)cc(C(C)(C)C)c1O`: the TGI is greater than 100 µM.

For the compound `O=C(O)CCN(CCC(=O)O)c1ccc(/C=C2\SC(=S)NC2=O)cc1`, the TGI is greater than 100 µM.

Regarding `CC(=O)Nc1ccc2cc(C)c(=O)[nH]c2n1`, the TGI is greater than 100 µM.

`CCc1nc2ccc(N=NN(C)C)cc2[nH]1` yielded a TGI greater than 100 µM.

Compound `Nc1nc2c(ncn2Cc2ccc(CO)cc2)c(=O)[nH]1` showed a TGI greater than 100 µM.

For the compound `CN(CCN(C)C(=S)NN)C(=S)NN`, the TGI is greater than 100 µM.

As for `O=C(NS(=O)(=O)OCC(Cl)(Cl)Cl)SCCC(F)(F)C(F)(F)C(F)(F)C(F)(F)C(F)(F)C(F)(F)F`, the TGI amounted to 37.7 µM.

For `O=C(NCCCN(CCCCN(CCCNC(=O)C(F)(F)F)CCCc1ccccc1)CCCc1ccccc1)C(F)(F)F`, the TGI turned out to be 3.34 µM.

Take `CCOP(=O)(O)C(C)(C)NC`: the TGI is greater than 100 µM.

In turn, `Cc1cccc(C(C)C)c1NC(=O)CC1Sc2ccccc2NC1=O` (stereo unspecified) gave a TGI of 94.2 µM.

`CC(C)C[C@H]1[C@@H](OCc2ccccc2)COS(=O)N1[C@H](C)c1ccccc1` (stereo partly specified) gave a TGI of 48.3 µM.

`CC1(C)OC2C(O)CN3CCS[C@H]3C2O1` (stereo partly specified) returned a TGI greater than 100 µM.

Turning to `COC(=O)C1C=CN(N(C)C)C2=C1C(=O)c1c(O)cccc1C2=O` (stereo unspecified), the TGI amounted to 2.93 µM.

The next assay relates to MCF7 breast. Kind of assay: DTP human tumour cell line panel, 48 h.
Compound `COc1cc2c3c(c4cc(OC)c(OC)cc4c2cc1OC)C(=O)C1CCC(=O)N1C3` (stereo unspecified) registered a TGI greater than 100 µM.

The compound `O=C(NC(CO)Cc1ccc(Oc2cc(CC(CO)NC(=O)OCc3ccccc3)ccc2OC(=O)OCc2ccccc2)cc1)OCc1ccccc1` (stereo unspecified) gave a TGI of 26.8 µM.

In the case of `CC(C)(C)c1cc(C(=O)/C=C/C=C/c2ccccc2)cc(C(C)(C)C)c1O`, the TGI is greater than 86.6 µM.

In turn, `O=C(O)CCN(CCC(=O)O)c1ccc(/C=C2\SC(=S)NC2=O)cc1` registered a concentration for total growth inhibition (TGI) greater than 100 µM.

Regarding `Nc1nc2c(ncn2Cc2ccc(CO)cc2)c(=O)[nH]1`, the TGI is greater than 100 µM.

With `O=C(NS(=O)(=O)OCC(Cl)(Cl)Cl)SCCC(F)(F)C(F)(F)C(F)(F)C(F)(F)C(F)(F)C(F)(F)F`, the TGI came to 40.6 µM.

Compound `CC(C)=C1C(=O)C[C@]2(C)C[C@H]3/C(=C(/C)CCC12)CC[C@@]3(C)O` (stereo partly specified) came in with a TGI greater than 50 µM.

The compound `CC(=O)Nc1ccc(-c2nc3ccccc3s2)cc1` returned a TGI greater than 100 µM.

For `O=C(NCCCN(CCCCN(CCCNC(=O)C(F)(F)F)CCCc1ccccc1)CCCc1ccccc1)C(F)(F)F`, the TGI came out at 3.05 µM.

Turning to `COC(=O)C1C=CN(N(C)C)C2=C1C(=O)c1c(O)cccc1C2=O` (stereo unspecified), the total growth inhibition concentration (TGI) amounted to 6.38 µM.

In the next assay the test system is MDA-MB-231 breast. Kind of assay: DTP human tumour cell line panel, 48 h.
`COc1cc2c3c(c4cc(OC)c(OC)cc4c2cc1OC)C(=O)C1CCC(=O)N1C3` (stereo unspecified) showed a TGI greater than 100 µM.

`CC(C)(C)c1cc(C(=O)/C=C/C=C/c2ccccc2)cc(C(C)(C)C)c1O`: the TGI was 49 µM.

On to `O=C(O)CCN(CCC(=O)O)c1ccc(/C=C2\SC(=S)NC2=O)cc1`, for which the TGI was greater than 100 µM.

The compound `CC(=O)Nc1ccc2cc(C)c(=O)[nH]c2n1` showed a TGI greater than 100 µM.

Turning to `CCc1nc2ccc(N=NN(C)C)cc2[nH]1`, the TGI was greater than 100 µM.

In turn, `Nc1nc2c(ncn2Cc2ccc(CO)cc2)c(=O)[nH]1` yielded a TGI greater than 100 µM.

`CN(CCN(C)C(=S)NN)C(=S)NN` showed a TGI greater than 100 µM.

Take `O=C(NS(=O)(=O)OCC(Cl)(Cl)Cl)SCCC(F)(F)C(F)(F)C(F)(F)C(F)(F)C(F)(F)C(F)(F)F`: the TGI is 61.9 µM.
